The source of these data is patent US8574837B2, “System for screening agonists/antagonists of cellular signaling pathways” (President and Fellows of Harvard College, priority 2008, dated 2013).

In test [1] the target is T1, Smo (Homo sapiens, UniProt Q99835).
T1 construct: expressed in transfected cells; host or cells: NIH/3T3 (mouse fibroblasts), retroviral infection with pBabe-A1::Smo::GFP, clonal lines
The test can be described thus: Smo translocation assay (A1::Smo::GFP / Smo colocalization with Arl13b at the primary cilium). In kind it is cell-based. The conditions noted are these: for Smo translocation to the primary cilium, agent applied alone: NIH/3T3 cells, ShhN 25 nM, SAG 200 nM, purmorphamine, 20-OHC, cyclopamine, GANT61 10 μM, SANT-1, SANT-2 1 μM, 24 hr; for ShhN-dependent translocation of Smo to the primary cilium, antagonist plus ShhN: ShhN 25 nM plus SANT-1 or SANT-2 1 μM or GANT61 10 μM, FIG. 6. The protocol: All 3T3 cell lines were plated at a density of 1×10^4 cells per well in fibronectin coated Lab-Tek™ Chamber Slides (Nunc, 178599). The cells were grown to confluence, then switched to […] containing 0.5% BCS with indicated treatments for 24 hr or as stated elsewhere herein. Immunostaining was performed after fixation in 4% Paraformaldehyde (PFA) according to standard protocols. AcpS labeling reactions were performed as described previously (Zhou et al., 2007). Fluorescent images were collected after fixing samples using a Zeiss LSM510 META on an inverted microscope, with a 63× (1.4 NA) oil-immersion objective lens utilizing four laser lines (405 nm, 488 nm, 543 nm, 633 nm).
Mouse recombinant ShhN purified protein was purchased from R&D Systems (#464-SH-025). SAG, SANT-2, and GANT61 were purchased from Axxora (#ALX-270-426, #ALX-270-436, #ALX-270-482; Axxora, LLC, San Diego, Calif.). SANT-1 was obtained from Tocris Bioscience (#1974). DMSO was from Sigma Aldrich (D2650). Purmorphamine was from Calbiochem (#540220). […] AcpS, Texas Red-CoA, and Alexa633-CoA were prepared as described previously (Zhou et al., 130 J. Am. Chem. Soc. 9925-30 (2008)).

Test [2] concerns the target T2, Gli1 (Homo sapiens, UniProt P08151).
T2 sequence (P08151 1-1106): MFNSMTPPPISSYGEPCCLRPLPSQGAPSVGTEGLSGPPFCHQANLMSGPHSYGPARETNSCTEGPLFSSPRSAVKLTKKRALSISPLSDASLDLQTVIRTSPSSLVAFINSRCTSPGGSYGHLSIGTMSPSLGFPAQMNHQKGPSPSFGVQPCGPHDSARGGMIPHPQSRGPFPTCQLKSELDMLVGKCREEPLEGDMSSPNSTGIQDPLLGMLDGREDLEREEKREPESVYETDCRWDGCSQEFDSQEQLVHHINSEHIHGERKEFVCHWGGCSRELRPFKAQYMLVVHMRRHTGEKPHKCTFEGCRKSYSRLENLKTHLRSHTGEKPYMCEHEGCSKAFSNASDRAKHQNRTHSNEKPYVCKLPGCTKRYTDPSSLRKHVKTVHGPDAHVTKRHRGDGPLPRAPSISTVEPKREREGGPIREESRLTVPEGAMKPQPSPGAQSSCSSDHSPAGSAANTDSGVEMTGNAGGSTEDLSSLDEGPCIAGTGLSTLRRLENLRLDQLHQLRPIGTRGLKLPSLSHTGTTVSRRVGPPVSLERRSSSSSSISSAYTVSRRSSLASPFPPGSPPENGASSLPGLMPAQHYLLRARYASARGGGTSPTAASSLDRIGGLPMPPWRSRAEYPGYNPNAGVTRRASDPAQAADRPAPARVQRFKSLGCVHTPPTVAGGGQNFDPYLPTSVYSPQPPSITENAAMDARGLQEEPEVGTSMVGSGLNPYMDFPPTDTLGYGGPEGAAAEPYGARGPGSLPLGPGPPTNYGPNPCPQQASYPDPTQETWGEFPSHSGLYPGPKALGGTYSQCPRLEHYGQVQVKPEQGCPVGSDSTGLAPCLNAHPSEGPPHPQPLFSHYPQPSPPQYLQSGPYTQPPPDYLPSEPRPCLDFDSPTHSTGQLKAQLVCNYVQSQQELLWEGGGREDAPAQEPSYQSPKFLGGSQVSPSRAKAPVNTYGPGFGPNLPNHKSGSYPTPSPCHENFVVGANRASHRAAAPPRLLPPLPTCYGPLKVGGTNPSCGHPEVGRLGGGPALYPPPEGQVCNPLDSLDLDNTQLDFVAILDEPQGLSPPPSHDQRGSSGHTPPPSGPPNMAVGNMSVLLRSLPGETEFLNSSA
The conditions noted are these: cited from earlier work.

Test [3] has as its system Hh signaling. The test can be described thus: Gli-luciferase assay (Ptch1-promoter driven luciferase reporter). In kind it is cell-based, mouse. The following applies: NIH/3T3 cells, RNAi knock down of suFU; FIG. 3. The protocol: Cells were plated at a density of 5×10^4 per well in 24-well plates 18 hr prior to transfection. DNA transfection was performed using Lipofectamine™ 2000 transfection reagent (Invitrogen, #11668); the DNA introduced in each well included 100 ng CMV driven Renilla luciferase construct, 300 ng Ptch1 promoter-driven firefly luciferase construct, and 400 ng of each shRNA construct or a PBS plasmid as a control. Cells were grown for two days; then the medium was changed to DMEM containing 0.5% BCS and proteins/compounds indicated in the text. Cells were cultured for an additional 48 hr, tryspinized, lysed and assayed using a Promega Dual Luciferase Reporter Essay System Kit (E1910). Renilla luciferase signal was used to normalize the firefly luciferase signal. The RNAi efficiency was measured as previous described (Varjosalo et al., 2006). In all luciferase assays, every condition was repeated in quadruplicate wells and experiments were repeated at least three times.
Mouse recombinant ShhN purified protein was purchased from R&D Systems (#464-SH-025). SAG, SANT-2, and GANT61 were purchased from Axxora (#ALX-270-426, #ALX-270-436, #ALX-270-482; Axxora, LLC, San Diego, Calif.). SANT-1 was obtained from Tocris Bioscience (#1974). DMSO was from Sigma Aldrich (D2650). Purmorphamine was from Calbiochem (#540220). […]
In general terms: In a reporter assay the amount or activity of a reporter protein is the signal.

For test [4], the system named is SmoA1. The conditions noted are these: cited from earlier work.
The target in test [5] is Smo (Mus musculus, UniProt P56726). The conditions noted are these: cited from earlier work.
Test [6] has as its system UV-irradiated Ptch1^+/− mice. The following applies: prolonged systemic treatment; cited from earlier work.

T1 sequence (Q99835 28-787): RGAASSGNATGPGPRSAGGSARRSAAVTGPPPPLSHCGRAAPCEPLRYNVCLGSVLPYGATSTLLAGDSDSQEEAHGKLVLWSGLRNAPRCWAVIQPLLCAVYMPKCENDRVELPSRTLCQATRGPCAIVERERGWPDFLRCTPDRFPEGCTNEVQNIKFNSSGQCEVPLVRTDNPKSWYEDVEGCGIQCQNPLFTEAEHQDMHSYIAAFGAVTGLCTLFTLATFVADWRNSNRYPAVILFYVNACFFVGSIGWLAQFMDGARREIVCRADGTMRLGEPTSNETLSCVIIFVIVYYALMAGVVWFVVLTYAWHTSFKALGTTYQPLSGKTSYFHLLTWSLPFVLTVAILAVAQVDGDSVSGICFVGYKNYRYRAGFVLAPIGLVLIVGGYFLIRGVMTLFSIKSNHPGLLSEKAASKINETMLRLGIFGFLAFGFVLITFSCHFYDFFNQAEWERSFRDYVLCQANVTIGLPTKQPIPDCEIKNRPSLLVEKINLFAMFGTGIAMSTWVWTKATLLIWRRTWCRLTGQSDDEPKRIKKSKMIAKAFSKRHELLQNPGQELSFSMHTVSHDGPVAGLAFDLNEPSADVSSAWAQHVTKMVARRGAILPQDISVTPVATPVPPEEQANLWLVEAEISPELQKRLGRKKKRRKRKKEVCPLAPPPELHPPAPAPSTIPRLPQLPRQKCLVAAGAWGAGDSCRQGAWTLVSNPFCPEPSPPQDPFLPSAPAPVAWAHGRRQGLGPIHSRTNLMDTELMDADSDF
Chain of Smo (Mus musculus, UniProt P56726) (P56726 33-793): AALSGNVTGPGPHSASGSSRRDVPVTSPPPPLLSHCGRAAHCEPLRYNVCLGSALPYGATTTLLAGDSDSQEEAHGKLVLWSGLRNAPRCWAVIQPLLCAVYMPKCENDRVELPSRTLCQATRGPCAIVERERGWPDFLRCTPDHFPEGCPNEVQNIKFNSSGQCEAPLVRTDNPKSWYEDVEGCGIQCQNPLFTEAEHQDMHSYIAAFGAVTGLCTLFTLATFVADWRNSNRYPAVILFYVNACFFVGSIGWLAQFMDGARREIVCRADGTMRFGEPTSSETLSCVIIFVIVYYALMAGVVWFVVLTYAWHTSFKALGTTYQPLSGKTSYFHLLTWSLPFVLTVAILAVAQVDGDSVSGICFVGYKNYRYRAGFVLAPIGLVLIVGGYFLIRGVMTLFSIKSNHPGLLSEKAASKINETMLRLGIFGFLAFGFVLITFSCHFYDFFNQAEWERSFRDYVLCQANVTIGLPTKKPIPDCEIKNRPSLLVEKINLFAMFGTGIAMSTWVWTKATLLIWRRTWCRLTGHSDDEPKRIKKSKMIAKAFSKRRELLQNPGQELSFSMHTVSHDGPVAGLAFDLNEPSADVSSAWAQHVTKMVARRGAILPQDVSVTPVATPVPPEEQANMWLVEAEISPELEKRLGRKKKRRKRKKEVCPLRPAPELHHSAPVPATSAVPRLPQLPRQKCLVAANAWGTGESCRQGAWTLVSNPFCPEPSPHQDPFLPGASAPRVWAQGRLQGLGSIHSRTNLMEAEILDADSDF

As to `CC(C)CCC[C@](C)(O)[C@H]1CC[C@H]2[C@@H]3CC=C4C[C@@H](O)CC[C@]4(C)[C@H]3CC[C@@]21C` [20-OHC, 20α-hydroxycholesterol], the “Smo translocation to the primary cilium, agent applied alone” value (“Smo translocation to the primary cilium” below) in test [1] is recorded as “Smo translocated to the primary cilium”.
For `CN(C)c1ccccc1CN1CCCN(Cc2ccccc2N(C)C)C1c1ccncc1` [GANT61], in test [2], the “Gli1 binding to DNA” value was “inhibits Gli1 binding to DNA”. Further, in test [1], the “Smo translocation to the primary cilium” value is on record as “do not induce obvious localization change of Smo” and the “ShhN-dependent translocation of Smo to the primary cilium, antagonist plus ShhN” value (“ShhN-dependent translocation of Smo” for short) is on record as “abrogate the ShhN-dependent translocation of Smo to the primary cilium”. The “Gli activity when the endogenous Gli antagonist suFU was knocked down” value in test [3] was “inhibited Gli activity”.
For the compound `CNC1CCC(N(Cc2cccc(-c3ccncc3)c2)C(=O)c2sc3ccccc3c2Cl)CC1` (centres unmarked) [SAG], the “Smo translocation to the primary cilium” value in test [1] is “Smo translocated to the primary cilium”.
On to `Cc1nn(-c2ccccc2)c(C)c1/C=N/N1CCN(Cc2ccccc2)CC1` [SANT-1], for which, in test [1], the “Smo translocation to the primary cilium” value is listed as “do not induce obvious localization change of Smo” and the “ShhN-dependent translocation of Smo” value is on record as “abrogate the ShhN-dependent translocation of Smo to the primary cilium”. Moreover, in test [4], the “Inhibition of SmoA1 activity, dose relative to wild-type Smo” value is reported as “at a comparable dose to that required to inhibit wild-type Smo”. Further, the “Competition for cyclopamine binding of Smo” value in test [5] is recorded as “compete for cyclopamine binding of Smo”.
Regarding `CCOc1cc(C(=O)Nc2ccc(Cl)c(-c3nc4ccccc4[nH]3)c2)cc(OCC)c1OCC` [SANT-2], in test [1], the “Smo translocation to the primary cilium” value is given as “do not induce obvious localization change of Smo” and the “ShhN-dependent translocation of Smo” value is listed as “abrogate the ShhN-dependent translocation of Smo to the primary cilium”. Also, in test [4], the “Inhibition of SmoA1 activity, dose relative to wild-type Smo” value is recorded as “at a comparable dose to that required to inhibit wild-type Smo”. Further, the “Competition for cyclopamine binding of Smo” value in test [5] is “compete for cyclopamine binding of Smo”.
Regarding `CC1=C2C[C@H]3[C@@H](CC=C4C[C@@H](O)CC[C@@]43C)[C@@H]2CC[C@]12O[C@@H]1C[C@H](C)CN[C@H]1[C@H]2C` [cyclopamine], in test [6], the Tumor formation entry is recorded as “significantly diminish tumor formation”. In addition, in test [1], the “Smo translocation to the primary cilium” value is given as “drove Smo to the primary cilium”.
On to `c1ccc2c(Oc3nc(Nc4ccc(N5CCOCC5)cc4)c4ncn(C5CCCCC5)c4n3)cccc2c1` [purmorphamine], for which the “Smo translocation to the primary cilium” value in test [1] is “Smo translocated to the primary cilium”.
